Values after ≈ are worked out from the molar mass of the structure shown. Active and inactive are the calls of the source. The rule behind the calls is not given here.
How the values were obtained:
[1] = molecular target: Proto-oncogene tyrosine-protein kinase Src (Homo sapiens, UniProt P12931); assay: Inhibition human recombinant cSRC using KVEKIGEGTYGVVYK peptide substrate in presence of [gamma-32P]-ATP
SH-SY5Y [2] = assay: cells; conditions: Homo sapiens, 72 h
HS27 = assay: Antiproliferative activity against human HS27 cells assessed as retardation in proliferation rate at 10 uM after 72 hrs by XTT assay; assay type: cell-based; conditions: hs27, 72 h
[3] = molecular target: Serine/threonine-protein kinase pim-1 (Homo sapiens, UniProt P11309); assay: Inhibition human recombinant Pim1 using KKRNRLTLTV peptide substrate in presence of [gamma-32P]-ATP
[4] = molecular target: T1, Receptor-type tyrosine-protein kinase FLT3 (Homo sapiens, UniProt P36888)
T1 sequence (P36888 whole entry): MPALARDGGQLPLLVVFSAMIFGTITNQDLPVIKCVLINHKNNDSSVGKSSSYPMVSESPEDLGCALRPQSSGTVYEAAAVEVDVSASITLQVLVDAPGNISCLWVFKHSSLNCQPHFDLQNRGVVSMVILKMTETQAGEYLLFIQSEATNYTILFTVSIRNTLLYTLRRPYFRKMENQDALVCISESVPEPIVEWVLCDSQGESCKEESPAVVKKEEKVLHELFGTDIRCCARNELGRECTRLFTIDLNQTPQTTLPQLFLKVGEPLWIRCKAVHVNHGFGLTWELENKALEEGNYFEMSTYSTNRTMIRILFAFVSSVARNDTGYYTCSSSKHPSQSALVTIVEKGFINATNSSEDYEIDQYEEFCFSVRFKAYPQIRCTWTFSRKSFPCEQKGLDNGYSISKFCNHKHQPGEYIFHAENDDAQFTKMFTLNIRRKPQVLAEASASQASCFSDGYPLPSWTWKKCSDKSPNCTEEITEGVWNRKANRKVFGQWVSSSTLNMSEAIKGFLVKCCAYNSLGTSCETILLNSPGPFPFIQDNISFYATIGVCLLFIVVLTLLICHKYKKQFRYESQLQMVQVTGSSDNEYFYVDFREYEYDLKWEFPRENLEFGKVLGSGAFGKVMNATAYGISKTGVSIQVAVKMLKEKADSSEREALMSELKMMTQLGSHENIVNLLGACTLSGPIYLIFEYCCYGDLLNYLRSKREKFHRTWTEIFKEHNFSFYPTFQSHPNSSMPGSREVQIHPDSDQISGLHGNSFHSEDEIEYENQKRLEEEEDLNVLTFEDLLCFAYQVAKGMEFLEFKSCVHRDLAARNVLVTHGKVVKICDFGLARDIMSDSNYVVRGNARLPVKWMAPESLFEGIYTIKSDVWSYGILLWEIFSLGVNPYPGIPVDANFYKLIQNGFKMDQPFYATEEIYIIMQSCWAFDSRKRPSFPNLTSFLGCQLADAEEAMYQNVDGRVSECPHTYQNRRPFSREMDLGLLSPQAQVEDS
Description: Inhibition human recombinant FLT3 using Poly(Ala,Glu,Lys,Tyr)peptide substrate in presence of [gamma-32P]-ATP

[5] = molecular target: T2, Tyrosine-protein kinase ABL1 (Homo sapiens, UniProt P00519); assay: Inhibition human recombinant Abl using Abtide peptide substrate at 100 uM in presence of [gamma-32P]-ATP
SH-SY5Y [6] = assay: Antiproliferative activity against human SH-SY5Y cells assessed as cell viability after 72 hrs by XTT assay
SH-SY5Y [7] = assay: Antiproliferative activity against human SH-SY5Y cells assessed as cell viability at 0.01 to 10 uM by XTT assay; assay type: functional, cell-based; conditions: TDE = time-dependent effect
Focal adhesion kinase 1 = Focal adhesion kinase 1 (Homo sapiens, UniProt Q05397)
Description: Inhibition human recombinant FAK using Poly(Glu,Tyr) substrate in presence of [gamma-32P]-ATP

[8] = molecular target: Tyrosine-protein kinase HCK (Homo sapiens, UniProt P08631); assay: Inhibition human recombinant HcK using KVEKIGEGTYGVVYK peptide substrate in presence of [gamma-32P]-ATP
[9] = Permeability of the compound at pH 7.4 after 5 hrs using porcine polar brain lipid by PAMPA-BBB assay; assay type: ADME; conditions: pig; for Papp at 5 h: PAMPA, pH 7.4, read-out: permeability
[10] = Metabolic stability in human liver microsomes at 50 uM at pH 7.4 using NADPH by LC-UV-MS method; assay type: ADME, Microsome; conditions: read-out: Stability
[11] = Aqueous solubility of the compound after 24 to 36 hrs by LC-MS-MS assay; assay type: physicochemical; conditions: buffer
SH-SY5Y [12] = assay: Antiproliferative activity against human SH-SY5Y cells assessed as growth reduction at 10 uM after 72 hrs; assay type: functional; design: scale not given: the % may be the effect or the level left
[13] = molecular target: T2, Tyrosine-protein kinase ABL1
Description: Inhibition human recombinant Abl using Abtide peptide substrate in presence of [gamma-32P]-ATP

In the case of CSc1nc(Nc2cccc(Cl)c2)c2cnn(CC(C)c3ccccc3)c2n1 (centres undefined), the Ki [1] is reported as 25 nM, the IC50 (SH-SY5Y [2]) is reported as 330 nM and the Activity (HS27) is reported as “Toxic”. For the same compound, the Ki [3] was 6600 nM, the Ki [4] was “Not Active” and the inhibition [5] was “inactive”. For the same compound, the Activity (SH-SY5Y [6]) was “Dose-dependent effect”, the Activity (SH-SY5Y [7]) was “tde” and the Ki (Focal adhesion kinase 1) was “Not Active”. The Ki [8] was 5000 nM.
For CC(Cn1ncc2c(NCc3ccccc3F)ncnc21)c1ccccc1 (centres undefined), the inhibition [5] was “inactive”.
In the case of CC(Cn1ncc2c(Nc3cccc(Cl)c3)ncnc21)c1ccccc1 (centres undefined), the inhibition [5] is reported as “inactive”.
Work on CC(C)(C)n1nc(-c2ccc(Cl)cc2)c2c(N)ncnc21 yielded an IC50 (SH-SY5Y [2]) of 6100 nM.
For CSc1nc(NCc2ccccc2)c2cnn(CC(C)c3ccccc3)c2n1 (centres undefined), the inhibition [5] was “inactive”.
For CSc1nc(Nc2ccccc2)c2cnn(CC(C)c3ccccc3)c2n1 (centres undefined), the Ki [1] was 25 nM, the IC50 (SH-SY5Y [2]) was 730 nM and the Activity (HS27) was “Toxic”. The Ki [3] was 11500 nM, the Ki [4] was “Not Active” and the inhibition [5] was “inactive”. For the same compound, the Activity (SH-SY5Y [7]) was “tde”, the Ki (Focal adhesion kinase 1) was “Not Active” and the Ki [8] was 3870 nM.
With CSc1nc(Nc2cccc(Cl)c2)c2cnn(CCc3ccccc3)c2n1 the Ki [1] was 90 nM, the Papp at 5 h [9] was 3.43 ×10⁻⁶ cm/s and the Activity (HS27) was “Toxic”. The Ki [3] was 6500 nM, the inhibition [5] was “inactive” and the Activity (SH-SY5Y [7]) was “tde”. For the same compound, the remaining at 50 µM [10] was 99% and the Ki [8] was 1720 nM.
In the case of CC(Cn1ncc2c(NCc3ccccc3)ncnc21)c1ccccc1 (centres undefined), the inhibition [5] is reported as “inactive”.
For CC(Cn1ncc2c(NCc3ccc(F)cc3)ncnc21)c1ccccc1 (centres undefined), the inhibition [5] was “inactive”.
In the case of CC(Cn1ncc2c(NCc3cccc(F)c3)ncnc21)c1ccccc1 (centres undefined), the inhibition [5] is reported as “inactive”.
For CSc1nc(Nc2cccc(Cl)c2)c2cnn(CC(Cl)c3ccccc3)c2n1 (centres undefined), the Ki [1] was 700 nM, the solubility [11] was 0.046 µg/mL (≈ 0.107 µM) and the Activity (SH-SY5Y [12]) was 75%. The Papp at 5 h [9] was 5.66 ×10⁻⁶ cm/s and the remaining at 50 µM [10] was 91%.
Work on ClC(Cn1ncc2c(NCc3ccccc3)ncnc21)c1ccccc1 (centres undefined) yielded a Ki [1] of 3000 nM and a Ki [13] of 370 nM.
CSc1nc(Nc2cccc(Br)c2)c2cnn(CC(C)c3ccccc3)c2n1 (centres undefined) showed a solubility [11] of less than 0.01 µg/mL, an IC50 (SH-SY5Y [2]) of 800 nM and a permeability ([9]; pampa, pH 7.4, 5 h) of 1.48 ×10⁻⁶ cm/s. For the same compound, the Activity (HS27) was “Toxic”, the Activity (SH-SY5Y [6]) was “Dose-dependent effect” and the Activity (SH-SY5Y [7]) was “tde”. For the same compound, the remaining at 50 µM [10] was 95%.
For Clc1cccc(Nc2ncnc3c2cnn3CCc2ccccc2)c1, the inhibition [5] was “inactive”.
